# Data from patent publication US20240343722A1 (VIFOR (INTERNATIONAL) AG, priority 2021, published 2024).
# Molecular target: T1, ferroportin (Fpn) (Mus musculus, UniProt Q9JHI9)
# T1 construct: endogenous in cells; host or cells: J774 mouse macrophage cell line, induced with Fe(III)NTA
# T1 sequence (Q9JHI9 1-570): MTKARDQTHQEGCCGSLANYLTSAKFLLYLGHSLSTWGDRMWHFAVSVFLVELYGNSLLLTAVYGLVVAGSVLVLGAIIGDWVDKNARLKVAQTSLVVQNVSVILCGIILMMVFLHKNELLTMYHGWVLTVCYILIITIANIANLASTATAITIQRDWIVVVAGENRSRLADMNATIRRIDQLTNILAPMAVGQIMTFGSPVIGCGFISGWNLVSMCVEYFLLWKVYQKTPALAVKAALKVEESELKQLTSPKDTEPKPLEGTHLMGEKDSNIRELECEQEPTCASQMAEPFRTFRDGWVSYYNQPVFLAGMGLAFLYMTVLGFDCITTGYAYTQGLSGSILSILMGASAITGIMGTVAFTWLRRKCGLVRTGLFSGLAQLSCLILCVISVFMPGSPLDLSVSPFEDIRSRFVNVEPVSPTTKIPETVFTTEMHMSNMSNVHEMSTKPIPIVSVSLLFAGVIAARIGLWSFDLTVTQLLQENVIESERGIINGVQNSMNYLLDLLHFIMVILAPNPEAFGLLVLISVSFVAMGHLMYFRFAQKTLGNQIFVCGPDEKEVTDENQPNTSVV
# Assay: Hepcidin Internalization Assay (J774)
# Assay type: cell-based
# Conditions: Average (AVE) IC50 of multiple measurements; inhibition of TMR-hepcidin (25 nM) internalization into J774 cells
# Source text: This cellular assay allows quantification of the binding of hepcidin to ferroportin (Fpn) through microscopic detection of internalization of a fluorescently labeled hepcidin into J774 cells. […] Binding of hepcidin to Fpn triggers internalization and degradation of both hepcidin and Fpn. […] Therefore, microscopic detection of cell-associated TMR fluorescence is a measure of hepcidin binding to Fpn and internalization of hepcidin and Fpn. If TMR-hepcidin is prevented from binding to Fpn, cellular TMR fluorescence remains low (Durrenberger et al, 2013). The effect of small molecular weight Fpn inhibitor compounds in this assay was evaluated in vitro as described below. […] After removal of the paraformaldehyde solution, cells were washed 3 times with PBS leaving 100 μl per well and the plates were sealed with foil plate seal. TMR (530-550 nm excitation/575-625 nm emission/400 ms exposure time) and Hoechst 33342 (360-370 nm excitation/420-460 nm emission /10 ms exposure time) fluorescence images were acquired using a […] imager (Olympus) with a 20× high NA objective. […] The acquired image data was analysed with the […] analysis software. […] IC50 values were calculated with the Sum(Mean) raw data using “log(inhibitor) vs. response” curve fitting of Prism 5 software (GraphPad Software Inc., version 5.02). For each data set the fit of the “log(inhibitor) vs. response (three parameters)” model was compared to the fit of the “log(inhibitor) vs. response - Variable slope (four parameters)” model and the IC50 data of the preferred model was used.
row,IC50,Compound
1,0.8 nM,"COc1cccc(CCn2c(CCNCCc3nc(C(=O)NCc4ncccc4F)co3)nc3ccccc32)c1 [Example 45, N-((3-fluoropyridin-2-yl)methyl)-2-(2-((2-(1-(3-methoxyphenethyl)-1 H-benzo[d]imidazol-2-yl)ethyl)amino)ethyl)oxazole-4-carboxamide]"
2,1 nM,"CCCCn1c(CCNCCc2nc(C(=O)NCc3ncccc3OC)co2)nc2ccccc21 [Example 46, 2-(2-((2-(1-butyl-1 H-benzo[d]imidazol-2-yl)ethyl)amino)ethyl)-N-((3-methoxypyridin-2-yl)methyl)oxazole-4-carboxamide]"
3,8 nM,"CCCCn1c(CCNCCc2nc(C(=O)NCc3ncccc3C(F)(F)F)co2)nc2ccccc21 [Example 47, 2-(2-((2-(1-butyl-1 H-benzo[d]imidazol-2-yl)ethyl)amino)ethyl)-N-((3-(trifluoromethyl)pyridin-2-yl)methyl)oxazole-4-carboxamide]"
4,2 nM,"COCCOCCn1c(CCNCCc2nc(C(=O)NCc3ncccc3F)co2)nc2ccccc21 [Example 48, N-((3-fluoropyridin-2-yl)methyl)-2-(2-((2-(1-(2-(2-methoxyethoxy)ethyl)-1 H-benzo[d]imidazol-2-yl)ethyl)amino)ethyl)oxazole-4-carboxamide]"
5,3300 nM,"CCCCn1c(C2CCN(CCc3nc(C(=O)NCc4ncccc4F)co3)CC2)nc2ccccc21 [Example 49, 2-(2-(4-(1-butyl-1 H-benzo[d]imidazol-2-yl)piperidin-1-yl)ethyl)-N-((3-fluoropyridin-2-yl)methyl)oxazole-4-carboxamide]"
6,0.8 nM,"O=C(NCc1ncccc1F)c1coc(CCNCCc2nc3ccccc3n2CC2CC2)n1 [Example 50, 2-(2-((2-(1-(Cyclopropylmethyl)-1 H-benzo[d]imidazol-2-yl)ethyl)amino)ethyl)-N-((3-fluoropyridin-2-yl)methyl)oxazole-4-carboxamide]"
7,0.8 nM,"O=C(NCc1ncccc1F)c1coc(CCNCCc2nc3ccccc3n2CC2CCCCC2)n1 [Example 51, 2-(2-((2-(1-(cyclohexylmethyl)-1H-benzo[d]imidazol-2-yl)ethyl)amino)ethyl)-N-((3-fluoropyridin-2-yl)methyl)oxazole-4-carboxamide]"
8,625 nM,"CCCCn1c(CC(C)(C)NCCc2nc(C(=O)NCc3ncccc3F)co2)nc2ccccc21 [Example 52, 2-(2-((1-(1-butyl-1 H-benzo[d]imidazol-2-yl)-2-methylpropan-2-yl)amino)ethyl)-N-((3-fluoropyridin-Z-yl)methyl)oxazole-4-carboxamide]"
9,5 nM,"O=C(NCc1ncccc1F)c1coc(CCNCCc2nc3ccccc3n2CC(F)F)n1 [Example 53, 2-(2-((2-(1-(2,2-difluoroethyl)-1H-benzo[d]imidazol-2-yl)ethyl)amino)ethyl)-N-((3-fluoropyridin-2-yl)methyl)oxazole-4-carboxamide]"
10,0.9 nM,"O=C(NCc1ncccc1F)c1coc(CCNCCc2nc3ccccc3n2Cc2ccccc2Cl)n1 [Example 54, 2-(2-((2-(1-(2-chlorobenzyl)-1H-benzo[d]imidazol-2-yl)ethyl)amino)ethyl)-N-((3-fluoropyridin-2-yl)methyl)oxazole-4-carboxamide]"
11,1.4 nM,"O=C(NCc1ncccc1F)c1coc(CCNCCc2nc3ccccc3n2-c2ccccc2)n1 [Example 55, N-((3-fluoropyridin-2-yl)methyl)-2-(2-((2-(1-phenyl-1 H-benzo[d]imidazol-2-yl)ethyl)amino)ethyl)oxazole-4-carboxamide]"
12,9 nM,"CN(C)CCn1c(CCNCCc2nc(C(=O)NCc3ncccc3F)co2)nc2ccccc21 [Example 56, 2-(2-((2-(1-(2-(dimethylamino)ethyl)-1 H-benzo[d]imidazol-2-yl)ethyl)amino)ethyl)-N-((3-fluoropyridin-2-yl)methyl)oxazole-4-carboxamide]"
13,1.4 nM,"CC(C)OCCn1c(CCNCCc2nc(C(=O)NCc3ncccc3F)co2)nc2ccccc21 [Example 57, N-((3-fluoropyridin-2-yl)methyl)-2-(2-((2-(1-(2-isopropoxyethyl)-1 H-benzo[d]imidazol-2-yl)ethyl)amino)ethyl)oxazole-4-carboxamide]"
14,0.8 nM,"O=C(NCc1ncccc1F)c1coc(CCNCCc2nc3ccccc3n2Cc2ccc(Cl)cc2)n1 [Example 58, 2-(2-((2-(1-(4-chlorobenzyl)-1H-benzo[d]imidazol-2-yl)ethyl)amino)ethyl)-N-((3-fluoropyridin-2-yl)methyl)oxazole-4-carboxamide]"
15,355 nM,"CCCCn1c(C(C)(C)CNCCc2nc(C(=O)NCc3ncccc3F)co2)nc2ccccc21 [Example 60, 2-(2-((2-(1-butyl-1 H-benzo[d]imidazol-2-yl)-2-methylpropyl)amino)ethyl)-N-((3-fluoropyridin-2-yl)methyl)oxazole-4-carboxamide]"
16,1430 nM,"CCCCn1c(C2(CNCCc3nc(C(=O)NCc4ncccc4F)co3)CCCCC2)nc2ccccc21 [Example 61, 2-(2-(((1-(1-butyl-1H-benzo[d]imidazol-2-yl)cyclohexyl)methyl)amino)ethyl)-N-((3-fluoropyridin-2-yl)methyl)oxazole-4-carboxamide]"
17,8.5 nM,"O=C(NCc1ncccc1F)c1coc(CCNCCc2nc3ccccc3n2Cc2ccncn2)n1 [Example 62, N-((3-fluoropyridin-2-yl)methyl)-2-(2-((2-(1-(pyrimidin-4-ylmethyl)-1 H-benzo[d]imidazol-2-yl)ethyl)amino)ethyl)oxazole-4-carboxamide]"
18,0.8 nM,"COc1cccc(-n2c(CCNCCc3nc(C(=O)NCc4ncccc4F)co3)nc3ccccc32)c1 [Example 63, N-((3-fluoropyridin-2-yl)methyl)-2-(2-((2-(1-(3-methoxyphenyl)-1H-benzo[d]imidazol-2-yl)ethyl)amino)ethyl)oxazole-4-carboxamide]"
19,1.3 nM,"O=C(NCc1ncccc1F)c1coc(CCNCCc2nc3ccccc3n2-c2cccc(Cl)c2)n1 [Example 64, 2-(2-((2-(1-(3-chlorophenyl)-1 H-benzo[d]imidazol-2-yl)ethyl)amino)ethyl)-N-((3-fluoropyridin-2-yl)methyl)oxazole-4-carboxamide]"
20,1.2 nM,O=C(NCc1ncccc1F)c1coc(CCNCCc2nc3cc4c(cc3n2CC2CC2)OCCO4)n1 [Example 65]
21,5 nM,"COCCOCCn1c(CCNCCc2nc(C(=O)NCc3ncccc3OC)co2)nc2cc3c(cc21)OCCO3 [Example 66, 2-(2-((2-(1-(2-(2-methoxyethoxy)ethyl)-6,7-dihydro-1 H-[1,4]dioxino[2′,3′:4,5]benzo[1,2-d]imidazol-2-yl)ethyl)amino)ethyl)-N-((3-methoxypyridin-2-yl)methyl)oxazole-4-carboxamide]"
22,4.3 nM,"COCCn1c(CCNCCc2nc(C(=O)NCc3ncccc3OC)co2)nc2cc3c(cc21)OCCO3 [Example 67, 2-(2-((2-(1-(2-methoxyethyl)-6,7-dihydro-1H-[1,4]dioxino[2′,3′:4,5]benzo[1,2-d]imidazol-2-yl)ethyl)amino)ethyl)-N-((3-methoxypyridin-2-yl)methyl)oxazole-4-carboxamide]"
23,7 nM,"COc1cccnc1CNC(=O)c1coc(CCNCCc2nc3cc4c(cc3n2CC(F)F)OCCO4)n1 [Example 68, 2-(2-((2-(1-(2,2-difluoroethyl)-6,7-dihydro-1 H-[1,4]dioxino[2′,3′:4,5]benzo[1,2-d]imidazol-2-yl)ethyl)amino)ethyl)-N-((3-methoxypyridin-2-yl)methyl)oxazole-4-carboxamide]"
